According to ChEMBL document CHEMBL1137878, “Synthesis and evaluation of novel oxazoline MMP inhibitors” (Bioorg Med Chem Lett, 2004):

Legend:
[1] = biological target: T1, Macrophage metalloelastase (Homo sapiens, UniProt P39900); test: Inhibitory activity against matrix metalloprotease-12
Interstitial collagenase [2] = biological target: T2, Interstitial collagenase (Homo sapiens, UniProt P03956); test: Inhibitory activity against matrix metalloprotease-1; NA denotes no activity upto solubility limit
T2 sequence (P03956 whole entry): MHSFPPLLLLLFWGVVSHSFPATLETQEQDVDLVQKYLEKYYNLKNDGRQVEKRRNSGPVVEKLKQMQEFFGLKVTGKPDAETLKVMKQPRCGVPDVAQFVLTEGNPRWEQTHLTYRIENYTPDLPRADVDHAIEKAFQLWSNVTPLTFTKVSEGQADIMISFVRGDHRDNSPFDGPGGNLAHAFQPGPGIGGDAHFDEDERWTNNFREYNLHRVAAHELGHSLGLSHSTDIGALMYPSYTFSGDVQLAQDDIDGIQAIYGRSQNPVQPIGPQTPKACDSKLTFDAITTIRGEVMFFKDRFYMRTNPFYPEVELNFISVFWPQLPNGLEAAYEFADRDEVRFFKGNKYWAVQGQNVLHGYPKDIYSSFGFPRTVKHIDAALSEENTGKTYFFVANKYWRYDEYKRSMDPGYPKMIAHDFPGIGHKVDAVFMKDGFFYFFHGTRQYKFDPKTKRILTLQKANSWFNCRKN

[3] = biological target: T3, Matrix metalloproteinase-9 (Homo sapiens, UniProt P14780); test: Inhibitory activity against matrix metalloprotease-9
T3 sequence (P14780 whole entry): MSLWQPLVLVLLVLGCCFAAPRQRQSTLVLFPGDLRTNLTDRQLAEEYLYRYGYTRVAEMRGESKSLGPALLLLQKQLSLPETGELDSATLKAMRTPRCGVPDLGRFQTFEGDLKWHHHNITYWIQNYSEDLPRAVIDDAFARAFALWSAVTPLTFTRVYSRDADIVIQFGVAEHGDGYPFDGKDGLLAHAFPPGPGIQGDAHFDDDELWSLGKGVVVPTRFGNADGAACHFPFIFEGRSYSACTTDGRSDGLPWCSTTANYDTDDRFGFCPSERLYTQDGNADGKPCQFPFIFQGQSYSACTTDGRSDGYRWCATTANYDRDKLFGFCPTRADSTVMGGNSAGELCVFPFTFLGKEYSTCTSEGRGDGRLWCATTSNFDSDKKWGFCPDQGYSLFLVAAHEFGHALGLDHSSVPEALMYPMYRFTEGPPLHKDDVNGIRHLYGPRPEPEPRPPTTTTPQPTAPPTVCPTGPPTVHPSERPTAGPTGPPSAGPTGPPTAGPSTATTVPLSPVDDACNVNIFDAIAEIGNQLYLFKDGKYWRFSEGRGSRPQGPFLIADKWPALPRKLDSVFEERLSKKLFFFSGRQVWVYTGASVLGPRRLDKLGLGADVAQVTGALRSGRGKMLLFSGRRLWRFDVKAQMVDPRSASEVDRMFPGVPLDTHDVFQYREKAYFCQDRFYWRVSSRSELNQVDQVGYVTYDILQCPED

[4] = biological target: T4, 72 kDa type IV collagenase (Homo sapiens, UniProt P08253); test: Inhibitory activity against matrix metalloprotease-2
T4 sequence (P08253 whole entry): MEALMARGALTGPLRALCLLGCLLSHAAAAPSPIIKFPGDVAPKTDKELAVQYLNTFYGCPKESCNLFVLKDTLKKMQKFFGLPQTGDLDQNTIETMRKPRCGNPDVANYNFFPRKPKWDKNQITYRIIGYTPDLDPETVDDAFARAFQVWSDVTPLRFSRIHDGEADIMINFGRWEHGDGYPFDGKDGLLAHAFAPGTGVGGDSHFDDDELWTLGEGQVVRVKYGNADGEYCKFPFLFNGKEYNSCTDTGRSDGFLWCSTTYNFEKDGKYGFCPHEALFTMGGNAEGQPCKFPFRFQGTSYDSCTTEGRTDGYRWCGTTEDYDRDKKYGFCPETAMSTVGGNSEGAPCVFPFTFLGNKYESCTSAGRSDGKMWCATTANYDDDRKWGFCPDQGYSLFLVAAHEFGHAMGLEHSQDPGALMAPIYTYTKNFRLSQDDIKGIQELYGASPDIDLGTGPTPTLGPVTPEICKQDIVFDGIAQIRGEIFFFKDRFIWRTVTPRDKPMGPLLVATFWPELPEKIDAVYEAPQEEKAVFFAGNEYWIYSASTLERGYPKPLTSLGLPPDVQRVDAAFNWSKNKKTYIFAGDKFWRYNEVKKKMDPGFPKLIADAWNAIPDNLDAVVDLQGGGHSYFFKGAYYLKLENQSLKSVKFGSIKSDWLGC

Interstitial collagenase [5] = biological target: T2, Interstitial collagenase; test: Inhibitory activity against matrix metalloprotease-1
[6] = biological target: T1, Macrophage metalloelastase; test: Inhibitory activity against matrix metalloprotease-12; NA denotes no activity upto solubility limit
[7] = biological target: T4, 72 kDa type IV collagenase; test: Inhibitory activity against matrix metalloprotease-2; NA denotes no activity upto solubility limit
[8] = biological target: T3, Matrix metalloproteinase-9; test: Inhibitory activity against matrix metalloprotease-9; NA denotes no activity upto solubility limit
Interstitial collagenase [9] = biological target: T2, Interstitial collagenase; test: Inhibitory activity against matrix metalloprotease-1; F denotes no activity was observed upto the concentration that fluorescence could be compensated for
[10] = biological target: T3, Matrix metalloproteinase-9; test: Inhibitory activity against matrix metalloprotease-9; F denotes no activity was observed upto the concentration that fluorescence could be compensated for

T1 sequence (P39900 whole entry): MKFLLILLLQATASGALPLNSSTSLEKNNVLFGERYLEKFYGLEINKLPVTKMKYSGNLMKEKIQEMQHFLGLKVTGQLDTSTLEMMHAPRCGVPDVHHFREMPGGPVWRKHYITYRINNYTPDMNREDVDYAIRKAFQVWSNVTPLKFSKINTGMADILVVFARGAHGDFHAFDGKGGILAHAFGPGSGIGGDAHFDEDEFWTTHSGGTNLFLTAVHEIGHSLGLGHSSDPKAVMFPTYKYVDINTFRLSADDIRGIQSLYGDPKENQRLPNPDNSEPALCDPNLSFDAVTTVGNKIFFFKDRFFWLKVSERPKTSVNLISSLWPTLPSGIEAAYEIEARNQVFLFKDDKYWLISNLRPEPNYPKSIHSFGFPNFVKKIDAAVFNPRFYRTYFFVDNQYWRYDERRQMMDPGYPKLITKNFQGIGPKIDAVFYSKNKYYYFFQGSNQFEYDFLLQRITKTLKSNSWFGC

Compound	Ki (Interstitial collagenase [2])	Ki [3] [µM]	Ki (Interstitial collagenase [5]) [µM]	Ki [6]	Ki [7]	also measured
C=C[C@@H]1OC(c2ccc(Br)cc2)=N[C@H]1CO	No Activity	9				Ki [1]: > 300 µM; Ki [4]: > 600 µM
C=C[C@@H]1OC(/C=C/c2ccccc2)=N[C@H]1Sc1ccccc1		> 100	> 100	No Activity	No Activity	
C=C[C@@H]1OC(CCCCC)=N[C@H]1CO		> 2000				
C=C[C@@H]1OC(c2ccc(C)cc2)=N[C@H]1CO	No Activity	68		No Activity	No Activity	
C=C[C@@H]1OC(c2ccc(Cl)cc2)=N[C@H]1SC(C)=O			> 100		No Activity	
C=C[C@@H]1OC(c2ccc(C)cc2)=N[C@H]1Sc1ccccc1			64	No Activity	No Activity	
C=C[C@@H]1OC(c2ccc(Br)cc2)=N[C@H]1S		> 100	> 200			
C=C[C@@H]1OC(c2ccc(OC)cc2)=N[C@H]1CO	No Activity			No Activity	No Activity	Ki [8]: No Activity
C=C[C@@H]1OC(/C=C/c2ccc(-c3ccccc3)cc2)=N[C@H]1CO				No Activity	No Activity	Ki [8]: No Activity
C=C[C@@H]1OC(CCc2ccccc2)=N[C@H]1CO	No Activity				No Activity	Ki [8]: No Activity
C=C[C@@H]1OC(Cc2ccccc2)=N[C@H]1CO		6	> 500	No Activity	No Activity	
C=C[C@@H]1OC(/C=C/c2ccccc2)=N[C@H]1S		94	92	No Activity	No Activity	
C=C[C@@H]1OC(/C=C/c2ccc(Br)cc2)=N[C@H]1CO		22	> 300	No Activity	No Activity	
C=C[C@@H]1OC(c2ccc(-c3ccccc3)cc2)=N[C@H]1Sc1ccccc1	No Activity	> 100			No Activity	
C=C[C@@H]1OC(c2ccc(-c3ccccc3)cc2)=N[C@H]1CO	No Activity	24				
C=C[C@@H]1OC(c2ccc(F)cc2)=N[C@H]1CO	No Activity			No Activity	No Activity	Ki [8]: No Activity
C=C[C@@H]1OC(/C=C\C=C\c2ccccc2)=N[C@H]1CO		8	32			Ki [1]: 49 µM; Ki [4]: 153 µM

Compound	Ki (Interstitial collagenase [2])	Ki [3] [µM]	Ki (Interstitial collagenase [5]) [µM]	Ki [6]	Ki [7]	also measured
C=C[C@@H]1OC(c2ccc(Oc3ccccc3)cc2)=N[C@H]1CO		32				
C=C[C@@H]1OC(c2ccc(Br)cc2)=N[C@H]1Sc1ccccc1		94				
C=C[C@@H]1OC(CCCCCCC)=N[C@H]1CO		> 2000				
C=C[C@@H]1OC(c2ccccc2)=N[C@H]1CO	No Activity	> 4000				Ki [1]: > 2000 µM; Ki [4]: > 2000 µM
C=CC1=N[C@@H](CO)[C@H](C=C)O1	No Activity			No Activity	No Activity	Ki [8]: No Activity
C=C[C@@H]1OC(c2ccc(C)cc2)=N[C@H]1SC(C)=O	No Activity	> 100		No Activity	No Activity	
C=C[C@@H]1OC(c2ccc(Cl)cc2)=N[C@H]1S		> 100	> 100	No Activity	No Activity	
C=C[C@@H]1OC(c2ccc(C)cc2)=N[C@H]1S		> 100	> 100			Ki [1]: > 300 µM; Ki [4]: 88 µM
C=C[C@@H]1OC(c2ccc(Br)cc2)=N[C@H]1SC(C)=O		88	> 200	No Activity	No Activity	
C=C[C@@H]1OC(c2ccc(-c3ccccc3)cc2)=N[C@H]1SC(C)=O		81	> 400	No Activity	No Activity	
C=C[C@@H]1OC(/C=C/c2ccccc2)=N[C@H]1SC(C)=O	No Activity	> 100				Ki [1]: > 300 µM
C=C[C@@H]1OC(c2ccc(Cl)cc2)=N[C@H]1Sc1ccccc1	No Activity	> 200		No Activity		
C=C[C@@H]1OC(c2ccc([N+](=O)[O-])cc2)=N[C@H]1CO						Ki [1]: > 100 µM; Ki (Interstitial collagenase [9]): Fluorescence interfered with assay; Ki [10]: Fluorescence interfered with assay
C=C[C@@H]1OC(C#Cc2ccccc2)=N[C@H]1CO		65	46	No Activity	No Activity	
C=C[C@@H]1OC(/C=C/c2ccccc2)=N[C@H]1CO		40				
C=C[C@@H]1OC(C2CCCCC2)=N[C@H]1CO	No Activity			No Activity	No Activity	Ki [8]: No Activity
C=C[C@@H]1OC(c2ccc(Cl)cc2)=N[C@H]1CO		33	> 300	No Activity		
